IC50 data for twelve compounds are collected here from US20140249135A1, “PIM KINASE INHIBITORS AND METHODS OF THEIR USE” (NOVARTIS AG, priority 2007, published 2014).

Where two headings read alike, the source gives them in different places. Where only a bound is given, the exact number is not on record here.

Assay type in all cases: biochemical
The target in one experiment is Pim1 kinase (Homo sapiens, UniProt P11309). Nature of the experiment: Pim1 ATP depletion assay.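 Further: Luciferase-luciferin luminescence readout of residual ATP after PIM1 transfers phosphate to a peptide substrate, 40 µM ATP added, reaction run to roughly half ATP consumption.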 The conditions noted are these: Pim1 ATP depletion assay.
Chain of Pim1 kinase (P11309 whole entry): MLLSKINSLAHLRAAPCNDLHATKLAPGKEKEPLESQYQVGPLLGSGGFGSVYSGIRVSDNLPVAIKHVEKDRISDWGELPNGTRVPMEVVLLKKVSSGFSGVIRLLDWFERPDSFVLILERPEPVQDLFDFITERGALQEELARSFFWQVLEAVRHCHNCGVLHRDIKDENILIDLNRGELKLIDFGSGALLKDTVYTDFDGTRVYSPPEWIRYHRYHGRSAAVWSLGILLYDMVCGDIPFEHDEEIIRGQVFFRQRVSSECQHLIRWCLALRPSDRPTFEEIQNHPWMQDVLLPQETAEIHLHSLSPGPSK
A further experiment has as its target Pim3 kinase (Homo sapiens, UniProt Q86V86). Nature of the experiment: Pim3 ATP depletion assay.
The next experiment addresses Pim2 kinase (Homo sapiens, UniProt Q9P1W9). Nature of the experiment: Pim2 ATP depletion assay.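 Further: Luciferase-based luminescent readout of ATP remaining after PIM2 phosphorylates a BAD peptide, final 5 nM enzyme, 4 µM ATP, 10 µM peptide, 2.5% DMSO, run to roughly half ATP consumption.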

Chain of Pim2 kinase (Q9P1W9 whole entry): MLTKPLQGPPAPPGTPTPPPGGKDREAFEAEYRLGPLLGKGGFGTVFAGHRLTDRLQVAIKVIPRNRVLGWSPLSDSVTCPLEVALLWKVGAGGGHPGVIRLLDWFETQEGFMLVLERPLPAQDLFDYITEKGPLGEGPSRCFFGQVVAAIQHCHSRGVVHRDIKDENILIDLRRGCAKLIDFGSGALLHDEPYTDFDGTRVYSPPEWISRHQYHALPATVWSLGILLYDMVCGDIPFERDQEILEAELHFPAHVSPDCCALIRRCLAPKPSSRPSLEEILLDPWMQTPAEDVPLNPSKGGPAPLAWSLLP

As usually defined, the IC50 is the concentration that inhibits the measured activity by half. As for `Nc1cnc(-c2ccccc2)nc1C(=O)Nc1cnccc1N1CC[C@@H](O)[C@H](N)C1` (stereo in doubt) [Example 670, 5-Amino-2-phenyl-pyrimidine-4-carboxylic acid (3-amino-4-hydroxy-3,4,5,6-tetrahydro-2H-[1,4′]bipyridinyl-3′-yl)-amide], the IC50 on Pim1 kinase (read-out: PIM1 IC50), at Pim3 kinase (read-out: PIM3 IC50) and on Pim2 kinase (read-out: PIM2 IC50) was less than 1 µM each time.

Turning to `CC1(O)CCCN(c2ccncc2NC(=O)c2nc(-c3ccccc3F)ccc2N)C1` (stereo not drawn) [Example 162, 3-Amino-6-(2-fluoro-phenyl)-pyridine-2-carboxylic acid (3-hydroxy-3-methyl-3,4,5,6-tetra-hydro-2H-[1,4′]bipyridinyl-3′-yl)-amide], the IC50 on Pim1 kinase (read-out: IC50 (μM) PIM1), at Pim3 kinase (read-out: IC50 (μM) PIM3) and on Pim2 kinase (read-out: IC50 (μM) PIM2) was less than 1 µM throughout.

Regarding `Nc1ccc(-c2c(F)cccc2F)nc1C(=O)Nc1cnccc1N1CCCCCCC1` [Example 167, 3-Amino-6-(2,6-difluoro-phenyl)-pyridine-2-carboxylic acid (4-azocan-1-yl-pyridin-3-yl)-amide], the IC50 at Pim1 kinase (read-out: IC50 (μM) PIM1) is less than 1 µM; on Pim3 kinase (read-out: IC50 (μM) PIM3), less than 1 µM; on Pim2 kinase (read-out: IC50 (μM) PIM2), 1 to 10 µM.

Turning to `Nc1ccc(-c2c(F)cccc2F)nc1C(=O)Nc1cnccc1N1CCCOCC1` [Example 168, 3-Amino-6-(2,6-difluoro-phenyl)-pyridine-2-carboxylic acid (4-[1,4]oxazepan-4-yl-pyridin-3-yl)-amide], the IC50 on Pim1 kinase (read-out: IC50 (μM) PIM1), at Pim3 kinase (read-out: IC50 (μM) PIM3) and on Pim2 kinase (read-out: IC50 (μM) PIM2) was less than 1 µM in each case.

`Nc1ccc(-c2c(F)cccc2F)nc1C(=O)Nc1cnccc1N1CCCCCC1` [Example 169, 3-Amino-6-(2,6-difluoro-phenyl)-pyridine-2-carboxylic acid (4-azepan-1-yl-pyridin-3-yl)-amide]: the IC50 at Pim1 kinase (read-out: IC50 (μM) PIM1), at Pim3 kinase (read-out: IC50 (μM) PIM3) and at Pim2 kinase (read-out: IC50 (μM) PIM2) was less than 1 µM in each case.

Consider `NC(=O)c1ccc(N2CCCCC2)c(NC(=O)c2nccnc2N)c1` [Example 170, 3-amino-N-(5-carbamoyl-2-(piperidin-1-yl)phenyl)pyrazine-2-carboxamide], for which the IC50 on Pim1 kinase (read-out: IC50 (μM) PIM1) is less than 1 µM; at Pim3 kinase (read-out: IC50 (μM) PIM3) it was less than 1 µM; on Pim2 kinase (read-out: IC50 (μM) PIM2) it was 1 to 10 µM.

With `NC1CCCN(c2ccncc2NC(=O)c2cnccn2)C1` (stereo not drawn) [Example 197, N-[4-(3-aminopiperidin-1-yl)-pyridin-3-yl]pyrazine-2-carboxamide], the IC50 at Pim1 kinase (read-out: IC50 (μM) PIM1), at Pim3 kinase (read-out: IC50 (μM) PIM3) and on Pim2 kinase (read-out: IC50 (μM) PIM2) was greater than 25 µM each time.

Turning to `Cc1cnc(C(=O)Nc2cnccc2N2CCCC(N)C2)cn1` (stereo not drawn) [Example 198, N-[4-(3-aminopiperidin-1-yl)pyridin-3-yl]-5-methyl-pyrazine-2-carboxamide], the IC50 at Pim1 kinase (read-out: IC50 (μM) PIM1), on Pim3 kinase (read-out: IC50 (μM) PIM3) and on Pim2 kinase (read-out: IC50 (μM) PIM2) was greater than 25 µM throughout.

For the compound `Nc1ncccc1C(=O)Nc1cnccc1N1CCCC(N)C1` (stereo not drawn) [Example 200, 2-amino-N-[4-(3-aminopiperidin-1-yl)pyridin-3-yl]nicotinamide], the values for the IC50 at Pim1 kinase (read-out: IC50 (μM) PIM1), on Pim3 kinase (read-out: IC50 (μM) PIM3) and at Pim2 kinase (read-out: IC50 (μM) PIM2) were 10 to 25 µM, greater than 25 µM and greater than 25 µM, respectively.

Take `CC(=O)c1ccc(N2CCC(N)CC2)c(NC(=O)c2nccnc2N)c1` [Example 220, N-[5-acetyl-2-(4-aminopiperidin-1-yl)phenyl]-3-aminopyrazine-2-carboxamide]: the IC50 at Pim1 kinase (read-out: IC50 (μM) PIM1) was less than 1 µM; on Pim3 kinase (read-out: IC50 (μM) PIM3), less than 1 µM; at Pim2 kinase (read-out: IC50 (μM) PIM2) it was 10 to 25 µM.

`CC(=O)c1ccc(N2CCCC(N)C2)c(NC(=O)c2nccnc2N)c1` (stereo not drawn) [Example 221, N-[5-acetyl-2-(3-aminopiperidin-1-yl)phenyl]-3-aminopyrazine-2-carboxamide]: the IC50 on Pim1 kinase (read-out: IC50 (μM) PIM1) is less than 1 µM; at Pim3 kinase (read-out: IC50 (μM) PIM3), less than 1 µM; at Pim2 kinase (read-out: IC50 (μM) PIM2) it was 1 to 10 µM.

`CS(=O)(=O)c1ccc(N2CCC(N)CC2)c(NC(=O)c2nccnc2N)c1` [Example 234, 3-amino-N-[2-(4-aminopiperidin-1-yl)-5-(methylsulfonyl)phenyl]-pyrazine-2-carboxamide]: the IC50 was 1 to 10 µM on Pim1 kinase (read-out: IC50 (μM) PIM1), 10 to 25 µM at Pim3 kinase (read-out: IC50 (μM) PIM3) and greater than 25 µM on Pim2 kinase (read-out: IC50 (μM) PIM2).
